“Also recorded” adds a separate entry of the source. Like-named read-outs stand apart in the source and are kept apart here.
What was measured:
KCa3.1 = molecular target: T1, KCa3.1 (Rattus norvegicus, UniProt Q9QYW1); assay: Whole cell patch clamp of K+ currents in rat primary microglia; format: cell-based; conditions: read-out: IC50, inhibition of microglial K+ current
T1 construct: K^+ currents were recorded from primary microglia; endogenous in cells; host or cells: primary rat (cortical) microglia
Description: Primary rat microglia were plated at a density of 300,000/35 mm dish for 24 hours. Whole cell patch clamp recordings were performed using an EPC9 patch-clamp amplifier and PatchMaster software (HEKA Instruments Inc.). The cell's membrane potential was held at −60 mV. External solution contained (in mM): 140 NaCl, 4 KCl, […], 1.8 CaCl2, 10 HEPES, 10 Glucose, pH 7.4. Patch solution contained (in mM): 140 […], 11 EGTA, 2 MgCl2, 10 HEPES, pH 7.2. Drugs were applied by gravity and selected with a capillary tube placed in close proximity to the recording dish. BzATP (Sigma-Aldrich, St. Louis, Mo.) was applied for 10 seconds.
KCa3.1 is highly expressed on microglia in vitro (Kaushal et al., 2007). […] Some residual K^+ current still remained which was most likely not KCa3.1-sensitive (Kettenmann et al., 2011)

[1] = Rat screening pharmacokinetics: plasma, brain, CSF exposure; format: in vivo; conditions: Screening PK, 10 mg/kg PO; for CSF / Free Brain / Free Plasma / concentration at 1 h / concentration at 4 h: 10 mg/kg; for concentration at 1 h / concentration at 4 h: po
Description: Male Sprague-Dawley rats (Crl:SD, Charles River) weighing 200-350 g were dosed to determine tissue exposure at 10 mg/kg p.o. (n=3) for screening pharmacokinetics (PK), and at 10, 30 and 100 mg/kg p.o. for the CCI studies (n=3 from each treatment group taken from the last arm of study). […] The rats were then decapitated and trunk blood was collected to in K3EDTA containing tubes. Plasma samples were generated by centrifugation (3500×g), and stored frozen at −20° C. until bioanalysis. The brains were harvested immediately following blood collection and stored frozen until bioanalysis at −20° C. For CCI animals, the plasma and brain harvests as described for the screening PK, although the tissue collection was initiated after the behavioral assessment was completed, approximately 4 hours 15 minutes after dosing. For spinal column harvest, a 20-gauge needle on a 10 ml syringe filled with cold saline was inserted into the spinal cord. The saline was used to flush the spinal column out. The spinal column tissues were then stored frozen at −20° C. prior to exposure measurements.
Prior to analysis, the brain and spinal cord samples were thawed at room temperature, weighed and homogenized using a homogenizing solution (IPA/H2O/DMSO; 30:50:20) at a ratio of 3/1 (ml/g) to generate tissue homogenates. An aliquot of 50 μl plasma, or 50 μl brain and spinal cord homogenates is mixed with 150 μl of a DMSO/ACN (20:80) solution that contains an internal standard (50 ng/ml). The diluted plasma, brain and spinal cord sample is then centrifuged (˜500 g for 15 min at 10° C.), supernatant is removed and then injected (10 μl) onto LC/MS/MS system for analysis. An Atlantis T3 column 2.6μ C18, 50×2.1 mm (Waters, Mass.) was used for analytical separation of the acid. A 6-minute mobile phase gradient was employed with mobile phase A (0.1% formic acid in water) ramping down from 99% to 1% (0-4 minutes), and then ramping back up to 99% (4-6 minutes), while ramping up solvent B (1% formic acid in ACN), from 1% to 99% (0-4 minutes), and then ramping down to 1% (4-6 minutes). Spectra was acquired in positive SRM mode with the parent mass of 324 and a daughter ion of 228.

Brennan model = Brennan model - Electronic Von Frey test; format: in vivo, rodent; conditions: Senicapoc 100 mg/kg PO, 240 min after treatment
Description: (§1) Depending on the test, the percentage of activity was calculated from the mean value of the vehicle-treated animals and compared to naïve animals, control paw or cut-off value.

TNBS model = assay: TNBS - Colorectal distension; format: in vivo, rodent; conditions: Senicapoc 100 mg/kg PO, 240 min after treatment
Description: as §1

rats = assay: Rat locomotor activity; format: in vivo; conditions: 4 hours after dosing
Text: Male Sprague-Dawley rats (Charles River) weighing 225-275 g on the test day were divided into groups of 8 animals per treatment. […] Following the pre-treatment time, rats were placed into 50×25×20 cm cages lined with crushed corn cob bedding (Bed-o'Cobs ¼ inch, Andersons Lab Bedding, Maumee, Ohio, USA). The cages were positioned in a Smart Frame Cage Rack (Kinder Scientific, Poway, Calif., USA) outfitted with an infrared beam array (7 X×15 Y). Rats were allowed to move freely within the cage for 1 hour with beam breaks continuously recorded using MotorMonitor™ (Kinder Scientific,). Time course and cumulative data were analyzed with Prism 4 (GraphPad, La Jolla, Calif.). One-way ANOVA with Tukey's Multiple Comparison Post-Hoc Test was used for statistical analysis.

Acetic acid test = Acetic acid test - Abdominal cramps; format: in vivo, rodent; conditions: Senicapoc 100 mg/kg PO, 240 min after treatment
Description: as §1

CCI rats = assay: Chronic constriction injury (CCI) model, von Frey paw withdrawal threshold; format: in vivo, rat; conditions: 4 hours after dosing
Description: Peripheral nerve injury was performed according to the method of Bennett and Xie (Bennett and Xie, 1988), with paw withdrawal thresholds to Von Frey filament stimulation measured as described previously (Chaplan et al., 1994; Tal and Bennett, 1994).
In the first cohort of nerve injured rats, hindpaw mechanical hypersensitivity was evident by day 7 and maintained for the duration of the experiment (see FIG. 4A). […] Experiments were run using a simple cross-over design. Tactile hypersensitivity of rats was evaluated one day prior to drug testing. Drugs were allowed to wash out for one week at which time the mechanical hypersensitivity was reassessed. Rats were then randomly re-assigned to groups prior to the next arm of the study being run. In the final arm, tissue was collected from 3 animals from each group immediately after behavioral assessment of allodynia. Dosing of drugs, assessment of mechanical thresholds and collection of tissues were performed by individual experimenters all blinded to treatments.
All CCI data are presented as mean+/−S.E.M. and were analyzed using ANOVA followed by Fisher's PLSD post-hoc analysis (StatView, Cary, N.C.) when appropriate.

[2] = rats, post dose; cited from earlier work

Question: What does the source list for NC(=O)C(c1ccccc1)(c1ccc(F)cc1)c1ccc(F)cc1 [Senicapoc]?
Answer: IC50 (KCa3.1): 10 nM; CSF ([1]; 1 h, mean ± SD): 25 ± 16 nM; Free Brain ([1]; 1 h, UBBr = 0.008): 37 ± 16 nM; Free Plasma ([1]; 1 h, UBP = 0.027): 17 ± 9 nM; CSF ([1]; 4 h, mean ± SD): 121 ± 62 nM; Free Brain ([1]; 4 h, UBBr = 0.008): 136 ± 50 nM; Free Plasma ([1]; 4 h, UBP = 0.027): 65 ± 22 nM; concentration at 1 h ([1]; male, Sprague-Dawley, rat, brain, 1 h, mean ± SD, read-out: Brain): 4660 ± 1990 nM; concentration at 1 h ([1]; male, Sprague-Dawley, rat, brain, 1 h, UBBr = 0.008, read-out: Free Brain): 37 nM; concentration at 4 h ([1]; male, Sprague-Dawley, rat, brain, 4 h, mean ± SD, read-out: Brain): 16900 ± 6040 nM; concentration at 4 h ([1]; male, Sprague-Dawley, rat, brain, 4 h, UBBr = 0.008, read-out: Free Brain): 136 nM; Kp at 1 h ([1]; male, Sprague-Dawley, rat, brain, 1 h, read-out: Free Brain/Free Plasma): 2.2; Kp at 4 h ([1]; male, Sprague-Dawley, rat, brain, 4 h, read-out: Free Brain/Free Plasma): 2.1; concentration at 1 h ([1]; male, Sprague-Dawley, rat, plasma, 1 h, mean ± SD, read-out: Plasma): 637 ± 322 nM; concentration at 1 h ([1]; male, Sprague-Dawley, rat, plasma, 1 h, UBP = 0.027, read-out: Free Plasma): 17 nM; concentration at 4 h ([1]; male, Sprague-Dawley, rat, plasma, 4 h, mean ± SD, read-out: Plasma): 2390 ± 748 nM; concentration at 4 h ([1]; male, Sprague-Dawley, rat, plasma, 4 h, UBP = 0.027, read-out: Free Plasma): 65 nM; concentration at 1 h ([1]; male, Sprague-Dawley, rat, 1 h, mean ± SD, read-out: CSF): 25 nM; concentration at 4 h ([1]; male, Sprague-Dawley, rat, 4 h, mean ± SD, read-out: CSF): 121 nM; % of activity vs. vehicle (Brennan model): −7%; % of activity vs. vehicle (TNBS model): 50%; Effect on locomotor activity (total distance traveled) (rats; 30 mg/kg p.o.): no effect; also recorded: did not significantly affect; Effect on locomotor activity (total distance traveled) (rats; 100 mg/kg p.o.): no effect; also recorded: did not significantly affect; % of activity vs. vehicle (Acetic acid test): −32%; Reversal of mechanical hypersensitivity (tactile allodynia) (CCI rats; 100 mg/kg p.o.): 48%; Effect on injury-induced nociceptive behaviors at the low doses (CCI rats; low doses (10, 30 mg/kg p.o.)): lack of significant effect; Tmax (time of maximum plasma concentration) [2]: 4 h
